According to article PMC5732040 (Cellular signalling, 2017):
Where a name gives a salt, the structure may show the parent alone. Read-outs that look alike come from different tables or passages of the source.

Assays:
[1] = tested on: TNF-α production by LPS-stimulated splenic monocytes; assay: Cytokine assay: LPS-stimulated TNF-α production by splenic monocytes; format: cell-based, mouse; conditions: for inhibition of TNF-α production: CGS 21680 alone; for inhibition at 30 µM / inhibition at 100 µM: Mus musculus, Monocyte, 4 h
human A2AR [2] = target: T1, human A2AR (Homo sapiens, UniProt P29274); assay: Cell-based cAMP assay in CHO-hA2AR cells; conditions: 10 min
T1 sequence (P29274 whole entry): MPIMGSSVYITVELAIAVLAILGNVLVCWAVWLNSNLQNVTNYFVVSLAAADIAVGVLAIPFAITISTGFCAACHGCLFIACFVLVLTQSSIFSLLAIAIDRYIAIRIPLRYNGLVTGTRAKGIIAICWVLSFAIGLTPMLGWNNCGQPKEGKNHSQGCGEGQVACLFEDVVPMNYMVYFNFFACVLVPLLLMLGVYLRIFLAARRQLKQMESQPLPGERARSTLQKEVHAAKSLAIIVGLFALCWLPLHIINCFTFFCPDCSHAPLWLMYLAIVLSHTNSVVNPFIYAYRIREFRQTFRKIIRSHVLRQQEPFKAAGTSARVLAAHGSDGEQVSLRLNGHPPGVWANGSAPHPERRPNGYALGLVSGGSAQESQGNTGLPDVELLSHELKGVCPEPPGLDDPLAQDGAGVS

hA2AR = hA2AR (Homo sapiens, UniProt P29274); assay: Cell-free membrane-based cAMP assay; format: biochemical; conditions: HEK293-hA2AR cytosol-free membrane preparations, ADA 3 U/ml, 30 min, NBMPR 0–300 μM
Sequence of hA2AR (P29274 whole entry): as above

[3] = tested on: CCL4 production by LPS-stimulated splenic monocytes; assay: Cytokine assay: LPS-stimulated CCL4 production by splenic monocytes; format: cell-based, mouse; conditions: absence of ADA, single agents
human A2AR [4] = target: T1, human A2AR; assay: ERK1/2 phosphorylation assay in CHO-hA2AR cells; conditions: inosine 1000 μM, AEA061 10 μM, 10 min
[5] = tested on: CCL3 production by LPS-stimulated splenic monocytes; assay: Cytokine assay: LPS-stimulated CCL3 production by splenic monocytes; format: cell-based, mouse; conditions: A2AR intact and deficient monocytes, absence of ADA
[6] = cited from earlier work

In the case of `CCNC(=O)[C@H]1O[C@@H](n2cnc3c(N)nc(NCCc4ccc(CCC(=O)O)cc4)nc32)[C@H](O)[C@@H]1O` [CGS 21680, 4-[2-[[6-Amino-9-(N-ethyl-β-D-ribofuranuronamidosyl)-9H-purin-2-yl]amino]ethyl] benzenepropanoic acid hydrochloride], the “inhibition of TNF-α production” value ([1]; LPS-stimulated A2AR deficient monocytes, absence of ADA) is reported as 6.7% and the “inhibition of TNF-α production” value ([1]; LPS-stimulated A2AR-intact monocytes, absence of ADA) is reported as 39%.
For `O=[N+]([O-])c1ccc(CSc2ncnc3c2ncn3[C@@H]2O[C@H](CO)[C@@H](O)[C@H]2O)cc1` [NBMPR, 6-S-[(4-Nitrophenyl)methyl]-6-thioinosine], the cAMP production (human A2AR [2]; without ADA) was “activated A2AR-mediated cAMP production” and the cAMP production (hA2AR) was “dose-dependently increased cAMP production”.
In the case of `OC[C@H]1O[C@@H](n2cnc3c(O)ncnc32)[C@H](O)[C@@H]1O` [inosine], the “inhibition of TNF-α production as single agent” value ([1]; LPS-stimulated A2AR intact monocytes, absence of ADA) is reported as “dose-dependently inhibited TNF-α production”, the inhibition at 30 µM ([1]; read-out: inhibition of LPS-stimulated TNF-α production, A2AR deficient monocytes, absence of ADA, 30 μM, 4 h) is reported as 5.2 ± 1.3% and the inhibition at 100 µM ([1]; read-out: inhibition of LPS-stimulated TNF-α production, A2AR deficient monocytes, absence of ADA, 100 μM, 4 h) is reported as 16.3 ± 0.7%. It also gave an inhibition at 30 µM ([1]; read-out: inhibition of LPS-stimulated TNF-α production, A2AR deficient monocytes, presence of ADA 3 U/ml, 30 μM, 4 h) of 5.2 ± 2.2%, an inhibition at 100 µM ([1]; read-out: inhibition of LPS-stimulated TNF-α production, A2AR deficient monocytes, presence of ADA 3 U/ml, 100 μM, 4 h) of 12.4 ± 1.2% and an inhibition at 30 µM ([1]; read-out: inhibition of LPS-stimulated TNF-α production, A2AR intact monocytes, absence of ADA, 30 μM, 4 h) of 18.6 ± 3.7%. For the same compound, the inhibition at 100 µM ([1]; read-out: inhibition of LPS-stimulated TNF-α production, A2AR intact monocytes, absence of ADA, 100 μM, 4 h) was 30.1 ± 1.3%, the inhibition at 30 µM ([1]; read-out: inhibition of LPS-stimulated TNF-α production, A2AR intact monocytes, presence of ADA 3 U/ml, 30 μM, 4 h) was 13.2 ± 1.9% and the inhibition at 100 µM ([1]; read-out: inhibition of LPS-stimulated TNF-α production, A2AR intact monocytes, presence of ADA 3 U/ml, 100 μM, 4 h) was 16.8 ± 1.6%. For the same compound, the cAMP production (human A2AR [2]; in the presence of ADA 3 U/ml) was “increased cAMP production”, the “inhibition of CCL4 production” value [3] was “individually inhibited CCL4 production” and the ERK1/2 phosphorylation (human A2AR [4]) was “increased ERK1/2 phosphorylation”. For the same compound, the “inhibition of CCL3 production” value [5] was “closely resembles that of TNF-α” and the half-life [6] was 15 h.
